Reference: PubChem BioAssay (NCI)
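Assay format: 96-well plates, 48-hour exposure. The concentration for 50% growth inhibition is given as GI50. TGI is the concentration that stops growth completely.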

Tests used:
Assay in all cases: growth of human tumour cells (NCI), 48 h
OVCAR-4 ovarian = test system: OVCAR-4 ovarian
ACHN renal = test system: ACHN renal
M14 melanoma = test system: M14 melanoma
SK-MEL-5 melanoma = test system: SK-MEL-5 melanoma
OVCAR-5 ovarian = test system: OVCAR-5 ovarian
SR leukemia = test system: SR leukemia
EKVX NSCLC = test system: EKVX NSCLC
HS 578T breast = test system: HS 578T breast
SN12C renal = test system: SN12C renal
RXF 393 renal = test system: RXF 393 renal

Structure (SMILES) | TGI (OVCAR-4 ovarian) | TGI (ACHN renal) | TGI (M14 melanoma) | TGI (SK-MEL-5 melanoma) | TGI (OVCAR-5 ovarian) | TGI (SR leukemia) | TGI (EKVX NSCLC) | TGI (HS 578T breast) | TGI (SN12C renal) | TGI (RXF 393 renal) | GI50 (RXF 393 renal) | GI50 (OVCAR-4 ovarian) | GI50 (ACHN renal) | GI50 (M14 melanoma) | GI50 (SK-MEL-5 melanoma) | GI50 (OVCAR-5 ovarian) | GI50 (EKVX NSCLC) | GI50 (HS 578T breast) | GI50 (SN12C renal) | GI50 (SR leukemia)
C=CC1(C)CCC2C(=CCC3C2(C)CC(O)C(O)C3(C)COC2OC(CO)C(O)C(O)C2O)C1 (stereo not drawn) | > 100 µM | > 100 µM | > 100 µM | > 100 µM | > 100 µM | > 100 µM | > 100 µM | > 100 µM | > 100 µM |  |  |  |  |  |  |  |  |  |  | 
O=S1OC(c2ccccc2)(c2ccccc2)C(c2ccccc2)(c2ccccc2)O1 | > 100 µM | > 100 µM | > 100 µM | > 100 µM | > 100 µM | > 100 µM | > 100 µM |  | > 100 µM | > 100 µM |  |  |  |  |  |  |  |  |  | 
COc1ccc(C2COc3c(ccc(OC)c3OC)C2=O)cc1OC (stereo not drawn) | > 100 µM | > 100 µM | > 100 µM | > 100 µM |  | > 100 µM | > 100 µM |  | > 100 µM | > 100 µM |  |  |  |  |  |  |  |  |  | 
COc1nc(NC2OC(COC(C)=O)C(OC(C)=O)C(OC(C)=O)C2OC(C)=O)c(N=CC=Nc2c(NC3OC(COC(C)=O)C(OC(C)=O)C(OC(C)=O)C3OC(C)=O)nc(OC)[nH]c2=O)c(=O)[nH]1 (stereo not drawn) | > 100 µM | > 100 µM | > 100 µM | > 100 µM | > 100 µM |  | > 100 µM |  | > 100 µM |  |  |  |  |  |  |  |  |  |  | 
CC(=O)N1C/C(=C\c2ccccc2)C(=O)/C(=C/c2ccccc2)C1 | 33.2 µM | 32.4 µM | 17.9 µM | 12.9 µM | 35.7 µM | 17.5 µM | 51.3 µM |  | 28.7 µM | 30.4 µM |  |  |  |  |  |  |  |  |  | 
O=C(NCc1cn(Cc2cccc(Oc3ccccc3)c2)nn1)c1cccnc1Nc1ccc(F)cc1 | > 100 µM | > 100 µM | > 100 µM | 38.8 µM | > 100 µM |  | > 100 µM | > 100 µM | > 100 µM | 42 µM | 5.69 µM | 23.4 µM | 11 µM | 13.7 µM | 4.48 µM | > 100 µM | 25.3 µM | 30.9 µM | 52.6 µM | 
O=C(CCc1n[nH]c(=S)o1)Nc1cc(Cl)ccc1Cl | > 100 µM | > 100 µM | > 100 µM | > 100 µM | > 100 µM |  | > 100 µM |  | > 100 µM |  |  |  |  |  |  |  |  |  |  | 
CCN(CC)CC(=O)NC1c2ccccc2Oc2ccccc21 | > 100 µM |  | > 100 µM | > 100 µM | > 100 µM | > 100 µM | > 100 µM |  | > 100 µM | > 100 µM |  |  |  |  |  |  |  |  |  | 
Cn1cc(C2NC(=O)c3ccccc3N2)c2ccccc21 (stereo not drawn) | 58.4 µM | > 92.8 µM | > 65.8 µM | 5.64 µM | > 100 µM |  | > 44.1 µM |  | > 100 µM | 0.704 µM |  |  |  |  |  |  |  |  |  | 
O=C(/C=C/c1ccccc1)NC1C=Nc2ccc([N+](=O)[O-])cc2NC1=O (stereo not drawn) | > 100 µM | > 100 µM | > 100 µM | > 100 µM | > 100 µM | > 100 µM | > 100 µM |  | > 100 µM | > 100 µM |  |  |  |  |  |  |  |  |  | 
Cn1ncnc1[C@@H]1c2n[nH]c(=O)c3cc(F)cc(c23)N[C@H]1c1ccc(F)cc1 | > 100 µM | > 100 µM | > 100 µM | > 100 µM | > 100 µM | > 100 µM |  | > 100 µM | > 100 µM | > 100 µM | > 100 µM | > 100 µM | > 100 µM | > 100 µM | > 100 µM | > 100 µM |  | > 100 µM | > 100 µM | 33.2 µM
NS(=O)(=O)c1ccc(N(/C=C/C(=O)C(F)(F)F)CC(=O)c2ccc(F)cc2)cc1 | > 100 µM | 67.1 µM |  |  | 74.4 µM |  | 87.2 µM |  | 45.3 µM | > 100 µM | 44 µM | 57.1 µM | 21.3 µM |  |  | 28.8 µM | 29.7 µM |  | 19.4 µM | 
COC(=O)C(=O)C(C#N)c1nc2ccccc2s1 (stereo not drawn) | > 100 µM | > 100 µM | > 100 µM | > 100 µM | > 100 µM |  | > 100 µM |  | > 100 µM | > 100 µM |  |  |  |  |  |  |  |  |  | 
Cn1cc(C2=C(c3ccsc3)C(=O)NC2=O)c2ccccc21 | > 25 µM | > 25 µM | > 25 µM | > 25 µM | > 25 µM | > 25 µM |  | > 25 µM | > 25 µM | > 25 µM | 24.4 µM | > 25 µM | > 25 µM | > 25 µM | > 25 µM | > 25 µM |  | > 25 µM | > 25 µM | > 25 µM
Cc1ccc(S(=O)c2ccccc2[N+](=O)[O-])cc1 (stereo not drawn) | > 100 µM | > 100 µM | > 100 µM | > 100 µM | > 100 µM | > 100 µM |  |  | > 100 µM | > 100 µM |  |  |  |  |  |  |  |  |  | 
CN(C)CC1CC/C(=C\c2ccc(Cl)c(Cl)c2)C1=O (stereo not drawn) | 58.2 µM | > 62.5 µM | 48.5 µM | > 72.9 µM | > 86.8 µM | 6.91 µM | > 58.7 µM |  | > 55.8 µM | > 61.8 µM |  |  |  |  |  |  |  |  |  | 
CC(C)=CCC/C(C)=C/CC/C(C)=C/CSC[C@H](NC(=O)CCCCCN1CCN(C)CC1)C(=O)NC1CCCCCC1 | 13.1 µM | 3.21 µM | 3.43 µM | 3.18 µM | 3.6 µM | 5.35 µM |  | 4.53 µM | 4.51 µM |  |  | 3.21 µM | 1.75 µM | 1.73 µM | 1.77 µM | 1.84 µM |  | 1.95 µM | 2.05 µM | 1.98 µM
CC(C)(CN1CCCCC1)C(=O)/C=C/c1ccccc1 | 73.9 µM | 96.6 µM | 34.7 µM | 25.8 µM | 40.4 µM |  | 35.2 µM |  | 42.3 µM | 24.7 µM |  |  |  |  |  |  |  |  |  | 
N#CCCNc1nonc1-c1nc2ccccc2n1CC(=O)c1ccc(N)cc1 | > 100 µM | > 100 µM | > 100 µM | 0.123 µM | > 100 µM | > 100 µM |  | > 100 µM | > 100 µM | > 100 µM | 0.0129 µM | 1.88 µM | 0.0362 µM | 0.0249 µM | 0.0271 µM | 0.0593 µM |  | 0.0192 µM | 0.0447 µM | < 0.0135 µM
O=C([CH-]C(=O)c1ccccc1)c1ccccc1.O=C([CH-]C(=O)c1ccccc1)c1ccccc1.O=C([CH-]C(=O)c1ccccc1)c1ccccc1.[Ga+3] | > 100 µM | > 100 µM | > 100 µM | > 100 µM | > 100 µM | > 100 µM |  |  | > 100 µM | > 100 µM | 43.7 µM | 64.7 µM | 59 µM | 37.6 µM | 80.2 µM | > 100 µM |  |  | 43.8 µM | 9.53 µM
